“Also recorded” adds a separate entry of the source.
Experiments:
Assay type in all cases: in vivo, rat
[1] = system: castrate Sprague-Dawley male rats; assay: Androgenic activity, Hershberger test (ventral prostate weight)
Description: The androgenic activity was tested as follows (see, Hershberger et al., Proc. Soc. Exptl. Biol. Med., 83: 175-180 (1953)). Immature (approximately 21 day old) male rats of the Sprague-Dawley strain were orchidectomized under METOFANE® anesthesia and randomly assigned to groups of ten animals for each dose level of test material and vehicle controls. Animals were maintained under standard conditions of housing and had free access to food and water. Illumination was controlled for 14-hour periods of light and 10 hours of darkness. Test compounds were dissolved in 10% ethanol/sesame oil and administered by gavage (oral) or subcutaneous injection daily for seven consecutive days starting on the day of surgery. Animals were sacrificed 24 hours after the last dose and the ventral prostate and seminal vesicles excised, cleaned of fat and connective tissue, blotted on moist filter paper and weighed to the nearest 0.1 mg. Ventral prostate weight was used as the endpoint because ventral prostate is the more sensitive organ to androgenic stimulation.
Statistical analysis was performed by conventional methods using a PROPHET data management system operating on SUN Microsystems OS 4.1.1 (see e.g., Bliss, Cl (1952) The Statistics of Bioassay, New York, Academic Press; Hollister, C (1988), Nucleic Acids Research, 16:1873-1875.
Each data point represents the mean (n=10) and standard error of the mean (SEM) prostate weight for each dose level. The potency ratio and 95% confidence index are set forth below.

[2] = system: castrate Sprague-Dawley male rats; assay: Duration of androgenic activity after a single subcutaneous injection (ventral prostate weight, AUC); details: for AUC of ventral prostate weight (duration of androgenic activity): 14 weeks
Description: Duration of androgenic activity was determined as follows. Immature (22 days of age) male rats of the Sprague-Dawley CD strain were orchidectomized under METOFANE anesthesia and randomly assigned to groups of forty or more animals. Animals were maintained under standard conditions of housing and had free access to food and water. Illumination was controlled for 14-hour periods of light and 10 hours of darkness. Animals received a single subcutaneous injection of 0.6 mg of test material in aqueous suspending vehicle (ASV) and/or an oily vehicle (10% ethanol/sesame oil, sesame oil containing 5 mg/ml chlorobutanol as a preservative or ethyl oleate) on the day of surgery. Controls received vehicle alone. Testosterone enanthate in sesame oil was used as a standard. In cases where the test material was not solid at room temperature, i.e., a wax or oil, 10% ethanol/sesame oil or ethyl oleate was used as a vehicle. Five rats from each group were sacrificed at weekly or biweekly intervals and seminal vesicle and ventral prostate glands were excised, cleaned of adherent fat and connective tissue and weighed to the nearest 0.1 mg. Ventral prostate weight was used as the endpoint because it is the more sensitive organ to androgenic stimulation. Area under the curve (AUC) was calculated by the trapezoidal rule.
Each data point represents the mean (n=5) and standard error of the mean (SEM) prostate weight for each time period. […] In FIG. 8, the data for 1.2 mg dose groups are shown together with historical data for testosterone undecanoate in aqueous suspension and testosterone enanthate in sesame oil as standards. Both testosterone undecanoate and testosterone enanthate are commercially available.

[3] = Serum levels of dimethandrolone (CDB-1321) and immunoreactive metabolites by radioimmunoassay; design: AUC of serum concentration of dimethandrolone and immunoreactive metabolites: unit not given here; details: n=5, FIG. 9
Description: Serum levels of testosterone and CDB-1321 were determined as follows. Rats from a duration of androgenic activity study were exsanguinated at autopsy, serum prepared by allowing blood to clot at room temperature and the sample frozen for subsequent radioimmunoassay. A radioimmunoassay for the free alcohol, 7a, 11β-dimethyl-19-nortestosterone, was developed using antisera generated in rabbits against the 3-carboxymethyloxime-BSA conjugate and employing the corresponding histamine conjugate for iodination as tracer.

[4] = system: luteinizing hormone (rLH); assay: Serum rLH in castrate male rats
Description: FIG. 14 depicts the serum levels of rLH as a function of time for groups 2 and 4 of the animals. Serum rLH were measured in the blood from castrate male rats following fourteen daily 12 mg/kg oral doses of CDB-4719A (dimethandrolone 17β-decylcarbonate, filled circles, group 2) or CDB-4521C (dimethandrolone 17β-undecanoate, open triangles, group 4) in 10% ethanol/sesame oil on days 0-13. Samples from weeks −1 to 6 or from weeks 7 to 9 and repeats were assayed as described in the protocols MEL-480AD using [^125I]-rLH or MEL-480AE, AG using [^125I]-rLH. The limit of detection shown as dotted line, or EC90, was the mean of 0.13, 0.14, or 0.16 in the first assay and 0.17, 0.22, or 0.21 ng/ml in the second series of assays based on 200 μl of serum per tube.
FIG. 15 depicts the serum levels of rLH as a function of time for groups 1 and 3 of the animals. Serum rLH were measured in the blood from castrate male rats following a single 12 mg/kg subcutaneous injection of CDB-4719A (dimethandrolone 17β-decylcarbonate, filled circles, group 1) or CDB-4521C (dimethandrolone 17β-undecanoate, open triangles, group 3) in an aqueous suspending vehicle on day 0. Samples from weeks −1 to 6 or from weeks 7 to 22 and repeats were assayed as described in the protocols MEL-480AD using [^125I]-rLH or MEL-480AE, AG, AH using [^125I]-rLH. The limit of detection shown as dotted line, or EC90, was the mean of 0.13, 0.14, or 0.16 in the first assay and 0.17, 0.22, or 0.21 ng/ml in the second series of assays based on 200 μl of serum per tube.
Carbonates of the invention, in embodiments, can be used to suppress luteinizing hormone in a mammal for extended periods of time. […] CDB-4719A (dimethandrolone 17β-decylcarbonate) was administered to castrate male rats, daily at 12 mg/kg oral doses, and CDB-4521C (dimethandrolone 17β-undecanoate) was administered in 10% ethanol/sesame oil, on days 0-13. […] This observation could have advantageous clinical implications, for example, in obtaining sustained suppression of the luteinizing hormone or hormone replacement therapy. In addition, this could have an advantage by providing a facile treatment using oral compositions such as tablets or capsules of the carbonates of the invention in suppressing hormone levels. Such treatment can be advantageous relative to a treatment involving parenteral (e.g., subcutaneous) administration of a drug such as the ester drug. Patient compliance is better with oral formulations than injections.
FIG. 15 provides a comparison between CDB-4719A (dimethandrolone 17β-decylcarbonate) and CDB-4521C (dimethandrolone 17β-undecanoate). A single dose (12 mg/kg) of the compound was administered to castrate male rats by subcutaneous injection in an aqueous suspending vehicle on day 0. The serum rLH concentration was monitored over a 22-week period and beyond.

[5] = 1.2 mg, 14-week observation period
[6] = single subcutaneous injection of 0.6 mg in aqueous suspending vehicle
[7] = single subcutaneous injection of 1.2 mg in aqueous suspending vehicle
[8] = fourteen daily 12 mg/kg oral doses in 10% ethanol/sesame oil, days 0-13, FIG. 14

SMILES: CCCCCCCCCCOC(=O)O[C@H]1CC[C@H]2[C@H]3[C@H]([C@@H](C)C[C@]12C)[C@H]1CCC(=O)C=C1C[C@H]3C [CDB-4719, 17β-Decyloxycarbonyloxy-7α,11β-dimethylestr-4-en-3-one]
- Androgenic activity Potency Ratio ([1]; oral, daily for 7 days in 10% ethanol/sesame oil, CDB 110 (methyltestosterone) = 1.000 assigned, FIG. 5, ranges did not pass all significance tests): five to nine times
- Androgenic activity Potency Ratio ([1]; oral, daily for 7 days in 10% ethanol/sesame oil, CDB 110 (methyltestosterone) = 1.000 assigned, FIG. 5, ranges did not pass all significance tests, listed as 4719): 5.486-8.992^1,2
- Androgenic activity Potency Ratio, 4718 vs. 4719 ([1]; oral, direct comparison of CDB-4718 and CDB-4719): 3.016
- Androgenic activity Potency Ratio ([1]; subcutaneous injection, daily for 7 days, CBD-111 (testosterone) = 1.000 assigned, FIG. 6, footnote 2 values did not pass all significance tests): no more potent than testosterone standard
- Androgenic activity Potency Ratio ([1]; subcutaneous injection, daily for 7 days, CBD-111 (testosterone) = 1.000 assigned, FIG. 6, footnote 2 values did not pass all significance tests, listed as 4719): 0.64
- AUC relative to testosterone enanthate in sesame oil [2, 5]: more than three times greater
- AUC relative to testosterone undecanoate [2, 5]: more than five times greater
- Duration of androgenic activity (in words) ([2]; single subcutaneous injection in aqueous vehicle): far more potent than testosterone; also recorded: most dramatic increase and maintenance of ventral prostate weight
- AUC of ventral prostate weight (duration of androgenic activity) [2, 6]: 1417 mg·week
- AUC of ventral prostate weight (duration of androgenic activity) [2, 7]: 2764 mg·week
- AUC of serum concentration of dimethandrolone and immunoreactive metabolites [3, 6]: 4151
- AUC of serum concentration of dimethandrolone and immunoreactive metabolites [3, 7]: 6010
- Serum rLH after administration was discontinued [4, 8]: remained suppressed for several weeks
- Serum rLH during administration [4, 8]: remained suppressed
- Serum rLH up to 16 weeks post administration ([4]; single 12 mg/kg subcutaneous injection in aqueous suspending vehicle on day 0, FIG. 15): remains suppressed
- Serum rLH after 16 weeks ([4]; single 12 mg/kg subcutaneous injection in aqueous suspending vehicle on day 0, monitored over 22 weeks, FIG. 15): remained suppressed even at week 22
